Laboratory results from ChEMBL document CHEMBL3301458, “MMV Malaria Box hERG screening”.
Active and inactive are the calls of the source. How the calls were made is not given here.

Tests used:
hERG (Kv11.1, KCNH2) [1] = target: T1, hERG (Kv11.1, KCNH2) (Homo sapiens, UniProt Q12809); assay: in vitro
Description: MMV: Malaria Box compounds were tested for inhibition of the human ether a go-go related gene (hERG), Kv11.1 channel, using IonWorks 384-well patch clamp electrophysiology at 1.1uM (3 independent assay plates up to 12 cells per concentration).

hERG (Kv11.1, KCNH2) [2] = target: T1, hERG (Kv11.1, KCNH2); assay: in vitro; remark: listed apart in the source
Description: MMV: Malaria Box compounds were tested for inhibition of the human ether a go-go related gene (hERG), Kv11.1 channel, using IonWorks 384-well patch clamp electrophysiology at 11.1uM (3 independent assay plates up to 12 cells per concentration).

T1 sequence (Q12809 whole entry): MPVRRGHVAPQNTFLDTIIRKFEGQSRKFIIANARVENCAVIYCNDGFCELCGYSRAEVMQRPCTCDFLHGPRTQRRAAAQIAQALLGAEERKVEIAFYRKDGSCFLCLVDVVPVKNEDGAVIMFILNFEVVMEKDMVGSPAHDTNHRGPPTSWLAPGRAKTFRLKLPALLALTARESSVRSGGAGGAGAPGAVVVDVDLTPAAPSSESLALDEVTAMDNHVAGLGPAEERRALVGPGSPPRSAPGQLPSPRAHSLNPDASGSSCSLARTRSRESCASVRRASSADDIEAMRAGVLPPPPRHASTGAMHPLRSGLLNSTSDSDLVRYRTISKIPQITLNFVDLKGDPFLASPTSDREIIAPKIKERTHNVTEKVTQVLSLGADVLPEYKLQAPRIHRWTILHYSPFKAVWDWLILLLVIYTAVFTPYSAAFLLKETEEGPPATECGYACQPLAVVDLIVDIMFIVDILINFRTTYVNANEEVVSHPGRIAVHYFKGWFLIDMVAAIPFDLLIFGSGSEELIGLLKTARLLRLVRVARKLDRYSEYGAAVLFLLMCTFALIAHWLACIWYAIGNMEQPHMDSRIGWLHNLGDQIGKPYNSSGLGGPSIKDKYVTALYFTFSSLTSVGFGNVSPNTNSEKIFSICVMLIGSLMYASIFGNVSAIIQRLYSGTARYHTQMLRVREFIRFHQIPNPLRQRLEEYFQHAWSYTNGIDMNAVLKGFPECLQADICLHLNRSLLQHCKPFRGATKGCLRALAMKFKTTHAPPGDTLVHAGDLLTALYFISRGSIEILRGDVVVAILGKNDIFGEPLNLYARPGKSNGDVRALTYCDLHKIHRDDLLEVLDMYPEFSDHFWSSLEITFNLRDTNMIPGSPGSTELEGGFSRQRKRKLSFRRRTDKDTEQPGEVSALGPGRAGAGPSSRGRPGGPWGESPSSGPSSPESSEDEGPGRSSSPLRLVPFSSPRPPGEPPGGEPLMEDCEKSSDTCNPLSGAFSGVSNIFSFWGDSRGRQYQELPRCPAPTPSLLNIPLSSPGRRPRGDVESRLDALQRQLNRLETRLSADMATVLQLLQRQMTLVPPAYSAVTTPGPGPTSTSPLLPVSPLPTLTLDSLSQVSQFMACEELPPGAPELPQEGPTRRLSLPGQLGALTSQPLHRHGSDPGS

Compound | inhibition at 1.1 µM (hERG (Kv11.1, KCNH2) [1]) [%] | inhibition at 11.1 µM (hERG (Kv11.1, KCNH2) [2])
COc1ccc(Nc2nc(N/N=C/c3ccc(O)cc3)nc(Nc3ccc([N+](=O)[O-])cc3)n2)cc1 | 17 | 70% (active)
COc1ccc(C2c3ccc4ccccc4c3Oc3ncn(CCCN(C)C)c(=N)c32)cc1 (stereo not given) | 32 | 86% (active)
CSC1=NC(=Nc2c(C)cccc2C)C2(CCC(C(C)(C)C)CC2)N1c1ccc(Cl)cc1 (stereo not given) | -5 | 5% (inactive)
COC(=O)c1ccc(Cl)c2c1C1C=CCC1C(c1cccc3ccccc13)N2 (stereo not given) | 10 | 110% (active)
COc1ccc(C2c3ccc4ccccc4c3Oc3ncn(CCCn4ccnc4)c(=N)c32)cc1OC (stereo not given) | 23 | 25%
CN(N=O)C1=C(NC2CCCCC2)C(=O)c2ccccc2C1=O | -2 | 70% (active)
CCOC(=O)C1=C(C)N=c2sc(=Cc3ccccc3O)c(=O)n2C1c1ccc(OC)c2ccccc12 (stereo not given) | 13 | 2% (inactive)
CCOc1ccc(N2C(N)=NC(N)=NC2(C)C)cc1 | 12 | 6% (inactive)
CCCCCCc1cc2cc(-c3csc(C=Cc4ccccc4)n3)c(=O)oc2cc1O | 81 | 93%
O=c1nc(C=Cc2ccc(Br)cc2)oc2ccccc12 | 8 | 16% (inactive)
O=[N+]([O-])c1ccc(C=NNc2nc3ccccc3[nH]2)cc1 | 15 | 44%
CCOC(=O)C1=C(c2ccccc2)N=c2sc(=Cc3cc(C)n(-c4ccc(F)cc4)c3C)c(=O)n2C1c1cccc(OC)c1OC (stereo not given) | 3 | 11% (inactive)
COc1cccc(C=Cc2nc(=O)c3ccccc3o2)c1OC | -3 | -4% (inactive)
COc1ccc(CCn2c(=N)c(C(=O)NCc3cccnc3)cc3c(=O)n4cccc(C)c4nc32)cc1 | 19 | 14% (inactive)
COc1ccc(C=C2SC(=N)N(c3ccccc3OC)C2=O)cc1 | 7 | 43%
CCOC(=O)c1c(C)n(-c2ccc(Cl)cc2)c2ccc(OC(=O)C=Cc3ccccc3)cc12 | 2 | 9% (inactive)
COc1ccccc1C(=O)ON=C(N)Cc1cccc2ccccc12 | 2 | 34%
COc1cc(C(=O)ON=C(N)Cc2cccc3ccccc23)cc(OC)c1OC | 26 | 89% (active)
Cc1cc(C=C2SC(=Nc3ccccc3)N(C3CCCC3)C2=O)c(C)n1-c1ccc(Cl)cc1 | 5 | -5% (inactive)
CN(C)c1ccc(N2C(N)=NC(N)=NC2(C)C)cc1 | 10 | 11% (inactive)
CC1=C(CC(=O)c2cccc([N+](=O)[O-])c2)C(=O)c2ccccc2C1=O | 9 | 17% (inactive)
CCCCCCc1cc2cc(-c3nc4ccccc4[nH]3)c(=Nc3ccccc3C)oc2cc1O | 2 | -1% (inactive)
Nc1ccn([C@@H]2O[C@H](CO)[C@@H](O)[C@H]2O)c(=O)n1 [CYTIDINE] | 0 | 8% (inactive)
O=C(Nc1cccc(C2=NCCN2)c1)Nc1cccc(C2=NCCN2)c1 [IMIDOCARB] | 59 | 110%
CN(C)c1ccc(C(O)(c2ccc(N(C)C)cc2)c2ccc(N(C)C)cc2)cc1 [METHYLROSANILINE] | 48 | 103% (active)
